Key:
[1] = biological target: CDK1/Cyclin B1 (Homo sapiens (Human), UniProt P06493); experiment: CDK1/Cyclin B1 ADP-Glo Kinase Assay; type: biochemical; conditions: ADP-Glo, 80 uM ATP; read-out: CDK1 Cyclin B1 IC50
Method in brief: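 ADP-Glo luminescent readout of ADP production, with IC50 fitted by a four-parameter equation to fractional velocity against inhibitor concentration. Reaction started with ATP-containing substrate after a 30-minute enzyme–inhibitor pre-incubation and stopped after 90 minutes, both at room temperature.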

[2] = biological target: CDK2/Cyclin E1 (Homo sapiens (Human), UniProt P24941); experiment: CDK2/Cyclin E1 Full length ADP-Glo Kinase Assay; type: biochemical; conditions: 20 uM ATP, read-out: CDK2/ CyclinE1 IC50
Method in brief: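 ADP-Glo luminescence (ATP depletion, then ADP-to-light conversion) quantified kinase turnover after a 90 min room-temperature reaction started by ATP/substrate, following 30 min enzyme–inhibitor preincubation. Enzyme: full-length CDK2/cyclin E1; IC50 fitted with a four-parameter equation on fractional velocity.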

[3] = biological target: CDK4/Cyclin D1 (Homo sapiens (Human), UniProt P11802); experiment: CDK4/Cyclin D1 Mobility Shift Assay (MSA); type: biochemical; conditions: 0.2 mM ATP, read-out: CDK4/ CyclinD1 MSA IC50
Source text: CDK4/Cyclin D1 Mobility Shift Assay (MSA)
The purpose CDK4/Cyclin D1 assay is to evaluate the inhibition (% inhibition and IC50 values) in the presence of small molecule inhibitors by using a fluorescence based microfluidic mobility shift assay. CDK4/Cyclin D1 catalyzes the production of ADP from ATP that accompanies the phosphoryl transfer to the substrate peptide 5-FAM-Dyrktide (5-FAM-[…]) (Perkin Elmer Peptide 34). The mobility shift assay (MSA) electrophoretically separates the fluorescently labelled peptides (substrate and phosphorylated product) following the kinase reaction. Both substrate and product are measured, and the ratio of these values is used to generate % conversion of substrate to product by the LabChip EZ Reader. Typical reaction solutions contained 2% DMSO (+/− inhibitor), 10 mM MgCl2, 1 mM EGTA, 0.05% BSA, 2 mM DTT, 0.2 mM ATP, 0.01% Brig-35, 1.5 uM 5-FAM-Dyrktide, 2.5 nM CDK4/Cyclin D1 in 50 mM HEPES buffer at pH 7.5. The reaction was initiated with the addition of substrate solution, following a 30-minute pre-incubation of enzyme and inhibitor at 22° C. in the reaction mix. The reaction was stopped after 180 minutes by the addition of 75 uL of 500 mM EDTA and measured on a Perkin Elmer EZ reader instrument. IC50 determinations were made from a plot of the fractional velocity as a function of inhibitor concentration fit to the 4 parameters IC50 equation.

[4] = biological target: CDK6/Cyclin D3 (Homo sapiens (Human), UniProt Q00534); experiment: CDK6/Cyclin D3 ADP-Glo Kinase Assay; type: biochemical; conditions: 100 uM ATP, read-out: CDK6/ CyclinD3 IC50
Method in brief: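 ADP-Glo luminescence measured ADP produced by CDK6/Cyclin D3 in a 90-min room-temperature reaction started with ATP-containing substrate, after 30-min enzyme–inhibitor pre-incubation. Fractional velocity was plotted against inhibitor concentration and fitted to a four-parameter IC50 model.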

[5] = test system: MCF-7 cells; experiment: Cell Growth Inhibition, MCF-7 (CellTiterGlo, 6 days); type: cell-based; conditions: Homo sapiens, MCF7, 144 h, MCF-7, 6-day treatment
Method in brief: (§1)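 IC50 from four-parameter, variable-slope fits of % growth inhibition, derived from CellTiterGlo 2.0 luminescence relative to control. Compounds, usually 10-10,000 nM in half-log steps, stayed 6 days at 37 °C, 5% CO2 with 500 MCF-7 or OVCAR-3 cells/well in 10% FBS RPMI.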

[6] = test system: OVCAR-3 cells; experiment: Cell Growth Inhibition, OVCAR-3 (CellTiterGlo, 6 days); type: cell-based; conditions: Homo sapiens, 144 h, OVCAR-3, 6-day treatment
Method in brief: as §1

CDK1/Cyclin B1, sequence (P06493 whole entry): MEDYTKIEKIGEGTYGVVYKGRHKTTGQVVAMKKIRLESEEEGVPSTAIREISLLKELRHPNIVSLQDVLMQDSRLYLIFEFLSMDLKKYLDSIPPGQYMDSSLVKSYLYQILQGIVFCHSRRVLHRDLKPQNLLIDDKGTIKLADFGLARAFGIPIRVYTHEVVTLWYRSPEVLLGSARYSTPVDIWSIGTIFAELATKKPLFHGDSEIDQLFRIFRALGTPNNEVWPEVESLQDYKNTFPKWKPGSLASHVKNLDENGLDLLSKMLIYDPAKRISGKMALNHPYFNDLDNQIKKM
CDK1/Cyclin B1, sequence (P14635 whole entry partner): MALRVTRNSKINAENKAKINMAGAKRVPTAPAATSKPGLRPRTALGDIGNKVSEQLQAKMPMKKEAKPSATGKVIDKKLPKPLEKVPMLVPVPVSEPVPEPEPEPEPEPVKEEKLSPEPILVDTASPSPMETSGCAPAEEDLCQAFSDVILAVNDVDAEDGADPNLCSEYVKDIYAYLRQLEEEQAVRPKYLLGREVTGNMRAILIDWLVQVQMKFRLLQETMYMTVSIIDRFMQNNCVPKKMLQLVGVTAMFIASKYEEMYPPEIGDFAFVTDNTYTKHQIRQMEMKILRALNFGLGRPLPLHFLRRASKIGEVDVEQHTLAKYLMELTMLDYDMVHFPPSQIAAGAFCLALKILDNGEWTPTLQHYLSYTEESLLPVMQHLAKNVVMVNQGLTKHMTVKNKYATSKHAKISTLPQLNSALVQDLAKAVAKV
CDK4/Cyclin D1, sequence (P11802 whole entry): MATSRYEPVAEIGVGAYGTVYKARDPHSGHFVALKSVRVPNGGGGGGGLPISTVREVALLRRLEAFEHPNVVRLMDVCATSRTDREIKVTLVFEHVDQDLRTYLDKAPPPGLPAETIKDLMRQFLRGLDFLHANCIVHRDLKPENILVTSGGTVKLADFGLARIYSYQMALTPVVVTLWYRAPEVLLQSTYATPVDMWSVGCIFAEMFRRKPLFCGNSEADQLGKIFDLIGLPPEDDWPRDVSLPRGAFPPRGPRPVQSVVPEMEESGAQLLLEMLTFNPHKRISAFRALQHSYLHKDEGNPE
CDK4/Cyclin D1, sequence (P24385 whole entry partner): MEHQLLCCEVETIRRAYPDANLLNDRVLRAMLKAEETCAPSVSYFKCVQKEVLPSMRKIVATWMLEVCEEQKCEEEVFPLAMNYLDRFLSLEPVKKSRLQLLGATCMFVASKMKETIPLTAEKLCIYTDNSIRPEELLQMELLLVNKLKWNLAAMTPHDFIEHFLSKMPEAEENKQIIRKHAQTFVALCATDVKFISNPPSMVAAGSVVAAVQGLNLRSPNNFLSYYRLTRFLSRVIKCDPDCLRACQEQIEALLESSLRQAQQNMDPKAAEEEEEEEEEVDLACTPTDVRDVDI
CDK6/Cyclin D3, sequence (Q00534 whole entry): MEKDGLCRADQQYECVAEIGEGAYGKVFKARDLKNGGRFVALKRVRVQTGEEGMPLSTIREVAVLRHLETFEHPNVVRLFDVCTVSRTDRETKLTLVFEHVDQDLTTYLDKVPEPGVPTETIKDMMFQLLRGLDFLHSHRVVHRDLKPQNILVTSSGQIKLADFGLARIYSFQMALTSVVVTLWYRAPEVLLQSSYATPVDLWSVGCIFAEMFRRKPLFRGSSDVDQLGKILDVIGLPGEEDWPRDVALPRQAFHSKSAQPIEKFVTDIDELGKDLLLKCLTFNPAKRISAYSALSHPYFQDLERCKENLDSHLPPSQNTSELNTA
CDK6/Cyclin D3, sequence (P30281 whole entry partner): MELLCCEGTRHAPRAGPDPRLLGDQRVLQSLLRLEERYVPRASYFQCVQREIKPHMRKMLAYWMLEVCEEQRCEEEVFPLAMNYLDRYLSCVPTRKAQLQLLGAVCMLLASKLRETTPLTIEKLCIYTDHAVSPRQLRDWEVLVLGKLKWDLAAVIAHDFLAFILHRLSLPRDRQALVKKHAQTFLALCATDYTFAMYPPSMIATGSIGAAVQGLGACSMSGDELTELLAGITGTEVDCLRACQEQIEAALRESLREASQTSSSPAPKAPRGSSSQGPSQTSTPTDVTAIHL

Structure (SMILES)	IC50 [1] [nM]	IC50 [2] [nM]	IC50 [3] [nM]	IC50 [4] [nM]	IC50 [5] [nM]	IC50 [6] [nM]
CN1C[C@@H]2[C@H](C1)[C@H]2Nc1ncc2ccnc(N3CCC4(CCN(S(C)(=O)=O)C4)C3)c2n1 (stereo partly drawn) [Compound 15, N-((1R,5S,6s)-3-methyl-3-azabicyclo[3.1.0]hexan-6-yl)-8-(7-(methylsulfonyl)-2,7-diazaspiro[4.4]nonan-2-yl)pyrido[3,4-d]pyrimidin-2-amine]	> 2000	500 to 2000	500 to 2000	> 2000	> 2000	> 2000
CS(=O)(=O)N1CCC(Nc2ncc3ccnc(N4CCN(C5CC5)CC4)c3n2)CC1 [Compound 1, 8-(4-cyclopropylpiperazin-1-yl)-N-(1-(methylsulfonyl)piperidin-4-yl)pyrido[3,4-d]pyrimidin-2-amine]	500 to 2000	< 200	< 200	200 to 500	500 to 2000	> 2000
CS(=O)(=O)N1CCC(Nc2ncc3ccnc(N4CCC5(CCOCC5)C4)c3n2)CC1 [Compound 7, N-(1-(methylsulfonyl)piperidin-4-yl)-8-(8-oxa-2-azaspiro[4.5]decan-2-yl)pyrido[3,4-d]pyrimidin-2-amine]	200 to 500	< 200	< 200	< 200	500 to 2000	500 to 2000
CN1C[C@@H]2[C@H](C1)[C@H]2Nc1ncc2ccnc(N3CCC4(C3)CC4(F)F)c2n1 (stereo partly drawn) [Compound 17, 8-(1,1-difluoro-5-azaspiro[2.4]heptan-5-yl)-N-((1R,5S,6s)-3-methyl-3-azabicyclo[3.1.0]hexan-6-yl)pyrido[3,4-d]pyrimidin-2-amine]	> 2000	200 to 500	< 200	200 to 500	500 to 2000	500 to 2000
CS(=O)(=O)N1CCC(Nc2ncc3ccnc(N4CCC5(C4)CC(F)(F)C5)c3n2)CC1 [Example 2, 8-(2,2-difluoro-6-azaspiro[3.4]octan-6-yl)-N-(1-(methylsulfonyl)piperidin-4-yl)pyrido[3,4-d]pyrimidin-2-amine]	< 200	< 200	< 200	< 200	500 to 2000	500 to 2000
CCN1CC2(C1)CN(c1ccc(Nc3ncc4ccnc(N5CCC6(C5)CC(F)(F)C6)c4n3)nc1)C2 [Example 6, 8-(2,2-difluoro-6-azaspiro[3.4]octan-6-yl)-N-(5-(6-ethyl-2,6-diazaspiro[3.3]heptan-2-yl)pyridin-2-yl)pyrido[3,4-d]pyrimidin-2-amine]	> 2000	500 to 2000	< 200	< 200	500 to 2000	> 2000
CN1CCN(c2ccc(Nc3ncc4ccnc(N5CCC6(C5)CC(F)(F)C6)c4n3)cc2)CC1 [Compound 4, 8-(2,2-difluoro-6-azaspiro[3.4]octan-6-yl)-N-(4-(4-methylpiperazin-1-yl)phenyl)pyrido[3,4-d]pyrimidin-2-amine]	200 to 500	< 200	< 200	< 200	200 to 500	500 to 2000
CN1CCn2nc(Nc3ncc4ccnc(N5CCC6(C5)CC6(F)F)c4n3)cc2C1 (stereo not drawn) [Compound 10, 8-(1,1-difluoro-5-azaspiro[2.4]heptan-5-yl)-N-(5-methyl-4,5,6,7-tetrahydropyrazolo[1,5-a]pyrazin-2-yl)pyrido[3,4-d]pyrimidin-2-amine]	> 2000	< 200	< 200	< 200	500 to 2000	500 to 2000
CS(=O)(=O)N1CCC(Nc2ncc3ccnc(N4CCC(C#N)(C5CC5)C4)c3n2)CC1 (stereo not drawn) [Compound 5, 3-cyclopropyl-1-(2-((1-(methylsulfonyl)piperidin-4-yl)amino)pyrido[3,4-d]pyrimidin-8-yl)pyrrolidine-3-carbonitrile]	< 200	< 200	< 200	< 200	500 to 2000	500 to 2000
CN1CCC(n2cc(Nc3ncc4ccnc(N5CCC6(C5)CC6(F)F)c4n3)cn2)CC1 (stereo not drawn) [Compound 20, 8-(1,1-difluoro-5-azaspiro[2.4]heptan-5-yl)-N-(1-(1-methylpiperidin-4-yl)-1H-pyrazol-4-yl)pyrido[3,4-d]pyrimidin-2-amine]	500 to 2000	< 200	< 200	< 200	500 to 2000	200 to 500
CN1Cc2ccc(Nc3ncc4ccnc(N5CCC6(C5)CC6(F)F)c4n3)cc2C1 (stereo not drawn) [Compound 22, 8-(1,1-difluoro-5-azaspiro[2.4]heptan-5-yl)-N-(2-methylisoindolin-5-yl)pyrido[3,4-d]pyrimidin-2-amine]	< 200	< 200	< 200	< 200	200 to 500	200 to 500
CS(=O)(=O)N1CC(Nc2ncc3ccnc(N4CCC5(C4)CC5(F)F)c3n2)C1 (stereo not drawn) [Compound 14, 8-(1,1-difluoro-5-azaspiro[2.4]heptan-5-yl)-N-(1-(methylsulfonyl)azetidin-3-yl)pyrido[3,4-d]pyrimidin-2-amine]	200 to 500	< 200	< 200	< 200	> 2000	> 2000
CCN1CC2(C1)CN(c1ccc(Nc3ncc4ccnc(N5CCC6(C5)CC6(F)F)c4n3)nc1)C2 (stereo not drawn) [Compound 21, 8-(1,1-difluoro-5-azaspiro[2.4]heptan-5-yl)-N-(5-(6-ethyl-2,6-diazaspiro[3.3]heptan-2-yl)pyridin-2-yl)pyrido[3,4-d]pyrimidin-2-amine]	> 2000	200 to 500	< 200	< 200		
CN1CCN(c2ccc(Nc3ncc4ccnc(N5CCC6(CCN(S(C)(=O)=O)C6)C5)c4n3)cc2)CC1 (stereo not drawn) [Compound 9, N-(4-(4-methylpiperazin-1-yl)phenyl)-8-(7-(methylsulfonyl)-2,7-diazaspiro[4.4]nonan-2-yl)pyrido[3,4-d]pyrimidin-2-amine]	200 to 500		< 200		500 to 2000	500 to 2000
CS(=O)(=O)N1CCC(Nc2ncc3ccnc(N4CC5(C4)CN(C4CC4)C5)c3n2)CC1 [Compound 8, 8-(6-cyclopropyl-2,6-diazaspiro[3.3]heptan-2-yl)-N-(1-(methylsulfonyl)piperidin-4-yl)pyrido[3,4-d]pyrimidin-2-amine]	200 to 500		< 200		500 to 2000	< 200
CS(=O)(=O)N1CCC(Nc2ncc3ccnc(N4CCC5(C4)CC5(F)F)c3n2)CC1 (stereo not drawn) [Compound 3, 8-(1,1-difluoro-5-azaspiro[2.4]heptan-5-yl)-N-(1-(methylsulfonyl)piperidin-4-yl)pyrido[3,4-d]pyrimidin-2-amine]	< 200	< 200	< 200	< 200	500 to 2000	< 200
CS(=O)(=O)N1CCC(Nc2ncc3ccnc(N4CC5(CCCC5)c5c(F)cccc54)c3n2)CC1 [Compound 19, 8-(4′-fluorospiro[cyclopentane-1,3′-indolin]-1′-yl)-N-(1-(methylsulfonyl)piperidin-4-yl)pyrido[3,4-d]pyrimidin-2-amine]	> 2000	< 200	500 to 2000	> 2000	> 2000	> 2000
CCN1CC2(C1)CN(c1ccc(Nc3ncc4ccnc(N5CCC6(CCOCC6)C5)c4n3)nc1)C2 [Compound 18, N-(5-(6-ethyl-2,6-diazaspiro[3.3]heptan-2-yl)pyridin-2-yl)-8-(8-oxa-2-azaspiro[4.5]decan-2-yl)pyrido[3,4-d]pyrimidin-2-amine]	> 2000	500 to 2000	< 200	< 200	200 to 500	> 2000

Source: patent publication US20240034731A1, “AZA-QUINAZOLINE COMPOUNDS AND METHODS OF USE” (Iambic Therapeutics, Inc., priority 2022, published 2024)
